According to ChEMBL document CHEMBL1201862, “PubChem BioAssay data set” (2004):
Each block holds one compound with its values, some of them ahead of it. Calls of active or inactive are those of the source.

Experiments:
[1] = HeLa cell cytotoxicity, dose response, cytotoxicity control for MgcRacGAP inhibitor project (AID 624300); assay type: functional
[2] = molecular target: T1, Rac GTPase-activating protein 1 (Homo sapiens, UniProt Q9H0H5); test: MgcRacGAP GTPase-activating activity inhibitors, confirmation, biochemical, ADP Hunter fluorescence, primary and confirmatory (AID 624330); assay type: functional
T1 sequence (Q9H0H5 whole entry): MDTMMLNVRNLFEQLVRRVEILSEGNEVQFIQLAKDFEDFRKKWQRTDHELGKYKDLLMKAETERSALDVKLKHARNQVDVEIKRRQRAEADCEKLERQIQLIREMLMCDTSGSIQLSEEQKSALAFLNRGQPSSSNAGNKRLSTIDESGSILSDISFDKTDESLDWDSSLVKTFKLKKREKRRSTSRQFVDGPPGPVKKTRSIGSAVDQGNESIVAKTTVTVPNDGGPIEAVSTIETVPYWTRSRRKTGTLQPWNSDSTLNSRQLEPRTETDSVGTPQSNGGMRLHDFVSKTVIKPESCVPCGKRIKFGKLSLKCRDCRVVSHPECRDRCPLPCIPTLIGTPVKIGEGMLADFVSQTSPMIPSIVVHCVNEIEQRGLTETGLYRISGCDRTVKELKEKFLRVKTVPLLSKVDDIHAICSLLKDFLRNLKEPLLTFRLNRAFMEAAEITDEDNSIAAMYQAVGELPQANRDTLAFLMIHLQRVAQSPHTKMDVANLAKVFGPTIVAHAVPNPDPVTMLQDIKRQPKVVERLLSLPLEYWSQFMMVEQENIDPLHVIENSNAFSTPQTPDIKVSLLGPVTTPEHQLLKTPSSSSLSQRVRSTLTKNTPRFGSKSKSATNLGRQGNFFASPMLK

[3] = molecular target: T2, Oxysterols receptor LXR-beta (Homo sapiens, UniProt P55055); assay type: functional, cell-based;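 further: agonist activity at LXR measured by a cell-based luminescence readout across a dose range, run as a counterscreen for daf-12 agonists; HEK293 cells with Gal4-LXR fusion and GAL4-driven luciferase reporter; potency for activation of Gal4-LXR reporter so compounds are agonists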
T2 sequence (P55055 whole entry): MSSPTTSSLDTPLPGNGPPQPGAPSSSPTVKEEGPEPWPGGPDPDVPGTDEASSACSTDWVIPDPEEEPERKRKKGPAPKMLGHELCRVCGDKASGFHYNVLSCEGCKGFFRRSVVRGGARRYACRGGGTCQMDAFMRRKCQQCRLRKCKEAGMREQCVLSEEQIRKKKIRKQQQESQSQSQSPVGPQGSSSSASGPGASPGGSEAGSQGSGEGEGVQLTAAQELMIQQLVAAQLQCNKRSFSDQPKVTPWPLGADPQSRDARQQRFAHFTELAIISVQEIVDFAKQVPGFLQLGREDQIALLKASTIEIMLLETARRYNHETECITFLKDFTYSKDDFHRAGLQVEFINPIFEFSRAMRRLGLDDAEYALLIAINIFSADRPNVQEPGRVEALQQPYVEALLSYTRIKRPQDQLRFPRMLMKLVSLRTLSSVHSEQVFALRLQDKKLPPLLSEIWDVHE

[4] = NIH-3T3 fibroblast cytotoxicity, dose response, cytotoxicity control, cell-based, fluorescence, Alamar Blue, secondary assay (AID 2327); assay type: functional;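 further: NIH-3T3 mouse fibroblasts cultured with fluconazole at 8 µg/mL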
[5] = cytotoxicity toward NIH3T3 fibroblasts, dose response, counter-screen, cell-based, ATP luminescence, mouse fibroblasts (AID 2010); assay type: functional;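 further: cells exposed to compound for about 90 hours before reading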
[6] = C. albicans growth with fluconazole, confirmation, fluorescence, retest (AID 2467); assay type: functional, cell-based
[7] = inhibitors of intracellular T. cruzi replication, confirmation, NIH3T3 host cells, beta-gal luminescence (AID 2044); assay type: functional, cell-based;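 further: intracellular parasites grown in NIH/3T3 mouse fibroblasts as host cells; luminescent beta-galactosidase reporter signal from transgenic T. cruzi replicating inside host cells; inhibitors lower the luminescence signal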
[8] = cells; assay type: functional, cell-based
[9] = cells; assay type: functional, cell-based; remark: listed apart in the source
[10] = molecular target: T3, Trace amine-associated receptor 1 (Homo sapiens, UniProt Q96RJ0); test: Fluorescence-based cell-based high throughput dose response assay to identify agonists of the human trace amine associated receptor 1 (TAAR1).; assay type: functional
T3 sequence (Q96RJ0 whole entry): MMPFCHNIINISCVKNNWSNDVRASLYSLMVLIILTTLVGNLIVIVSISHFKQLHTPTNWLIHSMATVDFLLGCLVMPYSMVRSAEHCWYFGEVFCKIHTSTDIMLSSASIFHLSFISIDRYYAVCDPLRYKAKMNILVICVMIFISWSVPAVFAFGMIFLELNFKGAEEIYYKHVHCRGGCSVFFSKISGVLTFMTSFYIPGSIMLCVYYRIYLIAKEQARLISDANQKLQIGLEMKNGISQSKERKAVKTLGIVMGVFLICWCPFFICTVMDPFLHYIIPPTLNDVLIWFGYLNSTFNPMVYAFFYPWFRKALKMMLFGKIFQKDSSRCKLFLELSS

[11] = molecular target: T3, Trace amine-associated receptor 1; test: Counterscreen for agonists of the human trace amine associated receptor 1 (hTAAR1): Fluorescence-based cell-based high throughput dose response assay to identify hTAAR1 agonist that also desensitize TAAR1 receptor response.; assay type: functional
[12] = molecular target: T4, Leucine aminopeptidase (Plasmodium falciparum 3D7, UniProt Q8IL11); test: P. falciparum M17LAP inhibitors, primary screen, biochemical, fluorogenic H-Leu-NHMec substrate, 1536-well (AID 1619); assay type: functional
T4 sequence (Q8IL11 whole entry): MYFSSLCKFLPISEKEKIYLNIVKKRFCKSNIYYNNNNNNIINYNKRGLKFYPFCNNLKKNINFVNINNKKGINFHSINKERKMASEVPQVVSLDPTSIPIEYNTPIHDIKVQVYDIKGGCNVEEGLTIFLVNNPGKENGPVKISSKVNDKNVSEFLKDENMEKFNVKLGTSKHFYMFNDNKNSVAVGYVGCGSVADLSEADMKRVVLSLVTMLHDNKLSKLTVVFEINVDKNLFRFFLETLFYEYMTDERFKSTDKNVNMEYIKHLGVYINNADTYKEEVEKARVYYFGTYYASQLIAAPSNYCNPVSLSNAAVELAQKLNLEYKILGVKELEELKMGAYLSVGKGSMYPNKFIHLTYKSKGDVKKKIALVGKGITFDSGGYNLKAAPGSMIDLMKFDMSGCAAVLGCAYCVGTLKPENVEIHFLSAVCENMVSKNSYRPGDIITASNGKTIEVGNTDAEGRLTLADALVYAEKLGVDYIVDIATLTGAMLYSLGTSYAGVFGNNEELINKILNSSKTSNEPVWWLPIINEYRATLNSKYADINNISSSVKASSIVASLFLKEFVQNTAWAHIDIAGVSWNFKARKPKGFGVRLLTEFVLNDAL

[13] = molecular target: Large T antigen (Simian virus 40, UniProt P03070); assay type: functional, Betapolyomavirus macacae;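 further: Confirmatory-stage PubChem screen for compounds that inhibit SV40 T antigen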
[14] = molecular target: T5, DNA repair and recombination protein RAD54-like (Homo sapiens, UniProt Q92698); test: inhibitors of human RAD54 branch migration, confirmation, biochemical, fluorescence, cherry-picked samples, dose series (AID 651657); assay type: functional
T5 sequence (Q92698 whole entry): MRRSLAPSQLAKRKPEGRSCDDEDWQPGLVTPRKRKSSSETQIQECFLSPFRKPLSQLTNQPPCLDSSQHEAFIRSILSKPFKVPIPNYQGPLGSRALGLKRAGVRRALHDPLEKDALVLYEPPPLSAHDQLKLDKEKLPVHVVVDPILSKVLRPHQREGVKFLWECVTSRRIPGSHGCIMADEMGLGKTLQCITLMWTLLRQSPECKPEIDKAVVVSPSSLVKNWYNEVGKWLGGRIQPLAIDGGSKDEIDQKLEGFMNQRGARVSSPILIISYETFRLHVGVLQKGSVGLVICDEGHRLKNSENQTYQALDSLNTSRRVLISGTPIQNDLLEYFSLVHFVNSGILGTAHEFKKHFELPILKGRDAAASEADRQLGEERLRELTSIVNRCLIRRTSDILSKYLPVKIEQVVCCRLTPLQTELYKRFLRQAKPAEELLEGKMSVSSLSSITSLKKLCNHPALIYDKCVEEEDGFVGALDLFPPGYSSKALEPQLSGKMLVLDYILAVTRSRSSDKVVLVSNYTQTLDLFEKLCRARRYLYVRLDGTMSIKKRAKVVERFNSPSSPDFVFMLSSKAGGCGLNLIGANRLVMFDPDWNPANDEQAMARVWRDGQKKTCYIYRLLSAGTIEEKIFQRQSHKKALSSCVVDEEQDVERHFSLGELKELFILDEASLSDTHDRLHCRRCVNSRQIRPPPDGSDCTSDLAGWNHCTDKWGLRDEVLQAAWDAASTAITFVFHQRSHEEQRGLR

[15] = molecular target: T6, Sentrin-specific protease 8 (Homo sapiens, UniProt Q96LD8); assay type: functional
T6 sequence (Q96LD8 whole entry): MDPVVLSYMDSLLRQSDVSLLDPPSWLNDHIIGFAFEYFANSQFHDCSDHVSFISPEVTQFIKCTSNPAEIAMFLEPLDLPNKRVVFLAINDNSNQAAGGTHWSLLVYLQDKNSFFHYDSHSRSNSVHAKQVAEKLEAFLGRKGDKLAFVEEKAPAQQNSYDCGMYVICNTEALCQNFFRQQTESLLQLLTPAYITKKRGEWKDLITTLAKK

[16] = molecular target: T6, Sentrin-specific protease 8; assay type: functional; remark: listed apart in the source
[17] = molecular target: T7, Heat shock factor protein 1 (Mus musculus, UniProt P38532); test: HSF1 potentiators in luciferase reporter cells, confirmation, cell-based, NIH3T3, luminescence, dose retest (AID 435004); assay type: functional;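 further: stress induced by proteasome inhibitor MG132 added 30 min after compound; luciferase reporter driven by HSF1 response element in NIH3T3 cells; actives raise luminescence as potentiators of the MG132 stress response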
T7 sequence (P38532 whole entry): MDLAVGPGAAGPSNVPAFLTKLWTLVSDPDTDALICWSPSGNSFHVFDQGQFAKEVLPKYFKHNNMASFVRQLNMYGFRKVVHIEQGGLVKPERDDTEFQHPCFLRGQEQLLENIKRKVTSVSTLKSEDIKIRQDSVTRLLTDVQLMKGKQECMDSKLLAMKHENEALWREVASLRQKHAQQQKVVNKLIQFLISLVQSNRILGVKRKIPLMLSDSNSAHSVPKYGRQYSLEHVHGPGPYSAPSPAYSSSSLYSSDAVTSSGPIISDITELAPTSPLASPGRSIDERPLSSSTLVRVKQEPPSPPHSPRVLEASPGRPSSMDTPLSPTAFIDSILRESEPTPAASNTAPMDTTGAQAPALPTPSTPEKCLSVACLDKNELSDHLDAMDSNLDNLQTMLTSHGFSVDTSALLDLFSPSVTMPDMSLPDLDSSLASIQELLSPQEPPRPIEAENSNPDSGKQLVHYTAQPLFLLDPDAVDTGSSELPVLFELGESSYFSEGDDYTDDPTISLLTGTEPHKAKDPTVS

[18] = molecular target: T8, DNA repair protein RAD52 homolog (Homo sapiens, UniProt P43351); assay type: functional, biochemical
T8 sequence (P43351 whole entry): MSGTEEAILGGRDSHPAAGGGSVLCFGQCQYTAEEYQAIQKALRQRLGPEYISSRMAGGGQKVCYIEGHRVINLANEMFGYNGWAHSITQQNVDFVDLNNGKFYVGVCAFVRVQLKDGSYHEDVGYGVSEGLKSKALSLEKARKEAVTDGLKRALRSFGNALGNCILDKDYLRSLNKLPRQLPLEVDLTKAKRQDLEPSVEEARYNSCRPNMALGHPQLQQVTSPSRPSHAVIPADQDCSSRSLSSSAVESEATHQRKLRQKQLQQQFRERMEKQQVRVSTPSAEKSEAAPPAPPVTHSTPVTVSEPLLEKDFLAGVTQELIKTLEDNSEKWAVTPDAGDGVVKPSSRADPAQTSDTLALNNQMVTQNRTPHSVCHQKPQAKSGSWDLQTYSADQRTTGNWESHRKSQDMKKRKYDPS

Large T antigen, sequence (P03070 whole entry): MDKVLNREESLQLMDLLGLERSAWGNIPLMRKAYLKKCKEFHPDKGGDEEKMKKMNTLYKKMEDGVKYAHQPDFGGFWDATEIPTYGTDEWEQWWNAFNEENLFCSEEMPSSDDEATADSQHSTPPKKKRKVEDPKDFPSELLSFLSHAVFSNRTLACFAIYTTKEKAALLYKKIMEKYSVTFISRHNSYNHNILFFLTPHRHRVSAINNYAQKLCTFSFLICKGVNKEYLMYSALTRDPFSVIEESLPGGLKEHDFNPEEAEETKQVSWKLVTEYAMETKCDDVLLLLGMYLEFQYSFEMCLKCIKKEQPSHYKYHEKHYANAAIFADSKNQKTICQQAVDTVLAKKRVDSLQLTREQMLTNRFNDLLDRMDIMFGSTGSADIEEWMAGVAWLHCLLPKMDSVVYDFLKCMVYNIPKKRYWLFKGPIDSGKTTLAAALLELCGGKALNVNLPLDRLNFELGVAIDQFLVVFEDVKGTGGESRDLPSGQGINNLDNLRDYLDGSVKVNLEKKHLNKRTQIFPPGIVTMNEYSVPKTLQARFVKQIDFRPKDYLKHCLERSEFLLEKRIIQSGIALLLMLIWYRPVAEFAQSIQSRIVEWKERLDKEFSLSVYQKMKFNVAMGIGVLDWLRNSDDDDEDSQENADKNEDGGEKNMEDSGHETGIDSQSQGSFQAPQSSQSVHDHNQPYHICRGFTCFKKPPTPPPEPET

Structure (SMILES): N=C(NOC(=O)N1c2ccccc2Sc2ccccc21)c1ccccc1
- EC50 [4]: > 160 µM (inactive)
- CC50 [1]: 100 µM (active)
- EC50 [5]: > 60 µM (not active)
- EC50 [6]: 1.22 µM (active)
- EC50 [7]: 0.814 µM (active)

Structure (SMILES): Cc1cccn2c(CNCC3OCCc4ccccc43)c(C(=O)N3CCCCC3)nc12 (centres undefined)
- EC50 [8]: > 29.9 µM (inactive)
- IC50 [9]: > 29.9 µM (inactive)
- EC50 [10]: 4.38 µM (active)
- IC50 [11]: 4.82 µM (active)

Structure (SMILES): COc1ccc(Nc2cc(C)nc(N3CCOCC3)n2)cc1
- EC50 [8]: > 29.9 µM (inactive)
- IC50 [9]: > 29.9 µM (inactive)
- EC50 [10]: 3.33 µM (active)
- IC50 [11]: > 29.9 µM (inactive)

Structure (SMILES): Cc1cc(C)n(C(CC(=O)N2CCc3ccccc3C2)C(=O)O)n1 (centres undefined)
- EC50 [8]: > 29.9 µM (inactive)
- IC50 [15]: > 100 µM (inactive)
- IC50 [9]: > 29.9 µM (inactive)
- EC50 [10]: 1.06 µM (active)
- IC50 [16]: 16.5 µM (active)
- IC50 [11]: 4.32 µM (active)

Structure (SMILES): Cc1n[nH]c(-c2ccc(O)c(C)c2O)c1-c1cnn(-c2ccccc2)c1
- EC50 [4]: > 160 µM (inconclusive)
- CC50 [1]: 98.9 µM (active)
- IC50 [2]: 85.8 µM (active)
- EC50 [17]: > 260 µM (inactive)
- EC50 [6]: > 38 µM (not active)

Structure (SMILES): CCCCCCCCN1C(=O)[C@H](CC(=O)NCCc2ccccc2OC)C[C@@]2(C(=O)OC)CCCCC=C12
- EC50 [8]: > 29.9 µM (inactive)
- IC50 [9]: > 29.9 µM (inactive)
- EC50 [10]: 7.05 µM (active)
- IC50 [11]: 9.43 µM (active)

Structure (SMILES): CC(Nc1ccnc2cc(Cl)ccc12)c1ccc(S(N)(=O)=O)cc1 (centres undefined)
- EC50 [8]: > 29.9 µM (inactive)
- IC50 [9]: > 29.9 µM (inactive)
- EC50 [10]: 14.9 µM (inactive)
- IC50 [11]: > 29.9 µM (inactive)

Further lines, with some results ahead:

- IC50 [2]: 62.7 µM (active)
Structure (SMILES): OC(CON=C1c2ccccc2-c2ccccc21)CN1CCNCC1 (centres undefined)
- CC50 [1]: 100 µM (active)

- EC50 [3]: > 67.5 µM (inactive)
Structure (SMILES): CCCSc1nsc(NC(=O)CC)n1

- EC50 [3]: > 67.6 µM (inactive)
Structure (SMILES): Cc1ccc(-c2onc3ccc(C(=O)O)cc23)cc1

- EC50 [3]: > 67.5 µM (inactive)
Structure (SMILES): Cc1cc(C(=O)CSc2ncccn2)c(C)n1Cc1ccco1

- IC50 [12]: 17.7 µM (active)
- IC50 [13]: 21.3 µM (active)
- IC50 [2]: 26.1 µM (active)
Structure (SMILES): CC(C)C1N=C2c3ccccc3N=C(SCC(=O)c3ccc(O)c(O)c3)N2C1=O (centres undefined)
- CC50 [1]: 100 µM (active)

- AC50 [14]: 34 µM (active)
Structure (SMILES): c1cc2c3c(cccc3c1)C(N1CCCCC1)=N2

- AC50 [18]: 4.7 µM (active)
- AC50 [14]: 32.9 µM (active)
Structure (SMILES): CN(C)CCCNc1nc2cc(-c3cccc(Cl)c3)sc2c(=O)n1C
